According to patent US20260274892A1, “MACROCYCLIC BROAD SPECTRUM ANTIBIOTICS” (RQx Pharmaceuticals, Inc., priority 2017, published 2026):

Legend:
[1] = system: Escherichia coli ATCC 25922; test: Minimum inhibitory concentration (MIC), CLSI broth micro-dilution, E. coli; format: cell-based; details: Escherichia coli, ATCC25922, 22 h, Table 6, cation adjusted Mueller Hinton Broth + 0.002% Tween-80, 35° C.
Procedure, shortened: (§1)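 Colonies grown 20 h at 35° C on Trypticase Soy agar (MRSA) or Luria agar (E. coli) were suspended in cation-adjusted Mueller Hinton broth with 0.002% Tween-80. Suspensions were added at OD600 0.0005 to 10-point twofold compound dilutions, then incubated 22 h at 35° C.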

[2] = system: Methicillin Resistant Staphylococcus aureus strain USA 200; test: Minimum inhibitory concentration (MIC), CLSI broth micro-dilution, S. aureus; format: cell-based; details: Staphylococcus aureus, MRSA / USA200; Table 6; MRSA USA 200; cation adjusted Mueller Hinton Broth + 0.002% Tween-80; 35° C., 22 hours
Procedure, shortened: as §1

Row | SMILES | MIC [1] | MIC [2]
1 | CCCCCCc1ccc2cc(C)c(C(=O)N[C@@H](CCN)C(=O)N(C)[C@@H]3C(=O)N[C@@H](C)C(=O)N[C@H](C(=O)NCC#N)Cc4ccc(OCCN)c(c4)-c4cc3ccc4OCCN)cc2c1 (racemic) [Compound 400, rac-(8S,11S,14S)-3,18-bis(2-aminoethoxy)-N-(cyanomethyl)-11-methyl-14-[methyl-[rac-(2S)-4-amino-2-[(7-hexyl-3-methyl-naphthalene-2-carbonyl)amino]butanoyl]amino]-10,13-dioxo-9,12-diazatricyclo[13.3.1.12,6]icosa-1(18),2(20),3,5,15(19),16-hexaene-8-carboxamide] | 0.25 µM | 0.047 µM
2 | Cc1nc(-c2ccc(C(C)(C)C)cc2)c(Br)cc1C(=O)N[C@@H](CCN)C(=O)N(C)[C@@H]1C(=O)N[C@@H](C)C(=O)N[C@H](C(=O)NCC#N)Cc2ccc(OCCN)c(c2)-c2cc1ccc2OCCN (racemic) [Compound 401, rac-(8S,11S,14S)-3,18-bis(2-aminoethoxy)-N-(cyanomethyl)-11-methyl-14-[methyl-[rac-(2S)-4-amino-2-[[5-bromo-6-(4-tert-butylphenyl)-2-methyl-pyridine-3-carbonyl]amino]butanoyl]amino]-10,13-dioxo-9,12-diazatricyclo[13.3.1.12,6]icosa-1(18),2(20),3,5,15(19),16-hexaene-8-carboxamide] | 0.25 µM | 0.016 µM
3 | Cc1cc(C(=O)N[C@@H](CCN)C(=O)N(C)[C@@H]2C(=O)N[C@@H](C)C(=O)N[C@H](C(=O)NCC#N)Cc3ccc(OCCN)c(c3)-c3cc2ccc3OCCN)c(C)nc1-c1ccc(C(C)(C)C)cc1 (racemic) [Compound 402, rac-(8S,11S,14S)-3,18-bis(2-aminoethoxy)-N-(cyanomethyl)-11-methyl-14-[methyl-[rac-(2S)-4-amino-2-[[6-(4-tert-butylphenyl)-2,5-dimethyl-pyridine-3-carbonyl]amino]butanoyl]amino]-10,13-dioxo-9,12-diazatricyclo[13.3.1.12,6]icosa-1(18),2(20),3,5,15(19),16-hexaene-8-carboxamide] | 0.38 µM | 0.031 µM
4 | COc1cc(C(=O)N[C@@H](CCN)C(=O)N(C)[C@@H]2C(=O)N[C@@H](C)C(=O)N[C@H](C(=O)NCC#N)Cc3ccc(OCCN)c(c3)-c3cc2ccc3OCCN)c(C)nc1-c1ccc(C(C)(C)C)cc1 (racemic) [Compound 403, rac-(8S,11S,14S)-3,18-bis(2-aminoethoxy)-N-(cyanomethyl)-11-methyl-14-[methyl-[rac-(2S)-4-amino-2-[[6-(4-tert-butylphenyl)-5-methoxy-2-methyl-pyridine-3-carbonyl]amino]butanoyl]amino]-10,13-dioxo-9,12-diazatricyclo[13.3.1.12,6]icosa-1(18),2(20),3,5,15(19),16-hexaene-8-carboxamide] | 0.5 µM | 0.016 µM
5 | Cc1nc(-c2ccc(C(C)(C)C)cc2)c(O)cc1C(=O)N[C@@H](CCN)C(=O)N(C)[C@@H]1C(=O)N[C@@H](C)C(=O)N[C@H](C(=O)NCC#N)Cc2ccc(OCCN)c(c2)-c2cc1ccc2OCCN (racemic) [Compound 404, rac-(8S,11S,14S)-3,18-bis(2-aminoethoxy)-N-(cyanomethyl)-11-methyl-14-[methyl-[rac-(2S)-4-amino-2-[[6-(4-tert-butylphenyl)-5-hydroxy-2-methyl-pyridine-3-carbonyl]amino]butanoyl]amino]-10,13-dioxo-9,12-diazatricyclo[13.3.1.12,6]icosa-1(18),2(20),3,5,15(19),16-hexaene-8-carboxamide] | 0.38 µM | 0.094 µM
6 | Cc1nc(-c2ccc(C(C)(C)C)cc2)c(N)cc1C(=O)N[C@@H](CCN)C(=O)N(C)[C@@H]1C(=O)N[C@@H](C)C(=O)N[C@H](C(=O)NCC#N)Cc2ccc(OCCN)c(c2)-c2cc1ccc2OCCN (racemic) [Compound 405, rac-(8S,11S,14S)-3,18-bis(2-aminoethoxy)-N-(cyanomethyl)-11-methyl-14-[methyl-[rac-(2S)-4-amino-2-[[5-amino-6-(4-tert-butylphenyl)-2-methyl-pyridine-3-carbonyl]amino]butanoyl]amino]-10,13-dioxo-9,12-diazatricyclo[13.3.1.12,6]icosa-1(18),2(20),3,5,15(19),16-hexaene-8-carboxamide] | 0.38 µM | 0.063 µM
7 | Cc1nc(-c2ccc(C(C)(C)C)cc2)c([N+](=O)[O-])cc1C(=O)N[C@@H](CCN)C(=O)N(C)[C@@H]1C(=O)N[C@@H](C)C(=O)N[C@H](C(=O)NCC#N)Cc2ccc(OCCN)c(c2)-c2cc1ccc2OCCN (racemic) [Compound 406, rac-(8S,11S,14S)-3,18-bis(2-aminoethoxy)-N-(cyanomethyl)-11-methyl-14-[methyl-[rac-(2S)-4-amino-2-[[6-(4-tert-butylphenyl)-2-methyl-5-nitro-pyridine-3-carbonyl]amino]butanoyl]amino]-10,13-dioxo-9,12-diazatricyclo[13.3.1.12,6]icosa-1(18),2(20),3,5,15(19),16-hexaene-8-carboxamide] | 0.25 µM | 0.023 µM
8 | Cc1nc(-c2ccc(C(C)(C)C)cc2)c(Cl)cc1C(=O)N[C@@H](CCN)C(=O)N(C)[C@@H]1C(=O)N[C@@H](C)C(=O)N[C@H](C(=O)NCC#N)Cc2ccc(OCCN)c(c2)-c2cc1ccc2OCCN (racemic) [Compound 407, rac-(8S,11S,14S)-3,18-bis(2-aminoethoxy)-N-(cyanomethyl)-11-methyl-14-[methyl-[rac-(2S)-4-amino-2-[[6-(4-tert-butylphenyl)-5-chloro-2-methyl-pyridine-3-carbonyl]amino]butanoyl]amino]-10,13-dioxo-9,12-diazatricyclo[13.3.1.12,6]icosa-1(18),2(20),3,5,15(19),16-hexaene-8-carboxamide] | 0.13 µM | 0.016 µM
9 | Cc1nc(-c2ccc(C(C)(C)C)cc2)c(N(C)C)cc1C(=O)N[C@@H](CCN)C(=O)N(C)[C@@H]1C(=O)N[C@@H](C)C(=O)N[C@H](C(=O)NCC#N)Cc2ccc(OCCN)c(c2)-c2cc1ccc2OCCN (racemic) [Compound 408, rac-(8S,11S,14S)-3,18-bis(2-aminoethoxy)-N-(cyanomethyl)-11-methyl-14-[methyl-[rac-(2S)-4-amino-2-[[6-(4-tert-butylphenyl)-5-(dimethylamino)-2-methyl-pyridine-3-carbonyl]amino]butanoyl]amino]-10,13-dioxo-9,12-diazatricyclo[13.3.1.12,6]icosa-1(18),2(20),3,5,15(19),16-hexaene-8-carboxamide] | 0.38 µM | 0.023 µM
10 | CNc1cc(C(=O)N[C@@H](CCN)C(=O)N(C)[C@@H]2C(=O)N[C@@H](C)C(=O)N[C@H](C(=O)NCC#N)Cc3ccc(OCCN)c(c3)-c3cc2ccc3OCCN)c(C)nc1-c1ccc(C(C)(C)C)cc1 (racemic) [Compound 409, rac-(8S,11S,14S)-3,18-bis(2-aminoethoxy)-N-(cyanomethyl)-11-methyl-14-[methyl-[rac-(2S)-4-amino-2-[[6-(4-tert-butylphenyl)-2-methyl-5-(methylamino)pyridine-3-carbonyl]amino]butanoyl]amino]-10,13-dioxo-9,12-diazatricyclo[13.3.1.12,6]icosa-1(18),2(20),3,5,15(19),16-hexaene-8-carboxamide] | 0.75 µM | 0.13 µM
11 | C[C@@H]1NC(=O)[C@@H](N(C)C(=O)[C@H](CCN)NC(=O)c2cnc(-c3ccc(C(C)(C)C)cc3)cc2N)c2ccc(OCCN)c(c2)-c2cc(ccc2OCCN)C[C@@H](C(=O)NCC#N)NC1=O (racemic) [Compound 411, rac-(8S,11S,14S)-3,18-bis(2-aminoethoxy)-N-(cyanomethyl)-11-methyl-14-[methyl-[rac-(2S)-4-amino-2-[[4-amino-6-(4-tert-butylphenyl)pyridine-3-carbonyl]amino]butanoyl]amino]-10,13-dioxo-9,12-diazatricyclo[13.3.1.12,6]icosa-1(18),2(20),3,5,15(19),16-hexaene-8-carboxamide] | 0.25 µM | 0.016 µM
12 | C[C@@H]1NC(=O)[C@@H](N(C)C(=O)[C@H](CCN)NC(=O)c2ccc(-c3ccc(C(C)(C)C)cc3)nc2N)c2ccc(OCCN)c(c2)-c2cc(ccc2OCCN)C[C@@H](C(=O)NCC#N)NC1=O (racemic) [Compound 412, rac-(8S,11S,14S)-3,18-bis(2-aminoethoxy)-N-(cyanomethyl)-11-methyl-14-[methyl-[rac-(2S)-4-amino-2-[[2-amino-6-(4-tert-butylphenyl)pyridine-3-carbonyl]amino]butanoyl]amino]-10,13-dioxo-9,12-diazatricyclo[13.3.1.12,6]icosa-1(18),2(20),3,5,15(19),16-hexaene-8-carboxamide] | 0.5 µM | 0.023 µM
13 | Cc1nc(-c2ccc(C(C)(C)C)cc2)cc(N)c1C(=O)N[C@@H](CCN)C(=O)N(C)[C@@H]1C(=O)N[C@@H](C)C(=O)N[C@H](C(=O)NCC#N)Cc2ccc(OCCN)c(c2)-c2cc1ccc2OCCN (racemic) [Compound 413, rac-(8S,11S,14S)-3,18-bis(2-aminoethoxy)-N-(cyanomethyl)-11-methyl-14-[methyl-[rac-(2S)-4-amino-2-[[4-amino-6-(4-tert-butylphenyl)-2-methyl-pyridine-3-carbonyl]amino]butanoyl]amino]-10,13-dioxo-9,12-diazatricyclo[13.3.1.12,6]icosa-1(18),2(20),3,5,15(19),16-hexaene-8-carboxamide] | 0.13 µM | 0.016 µM
